{
  "source": "patent US20100267561A1",
  "about": "“HERBICIDAL PYRIDAZINONE DERIVATIVES” (priority 2007, published 2010)",
  "assay_in_all_cases": "Test B pre-/postemergence plant response",
  "type_in_all_cases": "in vivo",
  "key": {"[1]": {"tested_on": "Russian thistle (Salsola iberica)", "conditions": "Preemergence", "description": "(§1) Seeds of plant species selected from blackgrass (Alopecurus myosuroides), downy bromegrass (Bromus tectorum), green foxtail (Setaria viridis), Italian ryegrass (Lolium multiflorum), wheat (Triticum aestivum), wild oat (Avena fatua), catchweed bedstraw (Galium aparine), bermudagrass (Cynodon dactylon), surinam grass (Brachiaria decumbens), cocklebur (Xanthium strumarium), corn (Zea mays), large crabgrass (Digitaria sanguinalis), woolly cupgrass (Eriochloa villosa), giant foxtail (Setaria faberii), goosegrass (Eleusine indica), johnsongrass (Sorghum halepense), kochia (Kochia scoparia), lambsquarters (Chenopodium album), morningglory (Ipomoea coccinea), eastern black (E.B.) nightshade (Solanum ptycanthum), yellow nutsedge (Cyperus esculentus), pigweed (Amaranthus retroflexus), common ragweed (Ambrosia elation), Russian thistle (Salsola iberica), soybean (Glycine max), common (oilseed) sunflower (Helianthus annuus), and velvetleaf (Abutilon theophrasti) were planted and treated preemergence with test chemicals formulated in a non-phytotoxic solvent mixture which included a surfactant.\n(§2) At the same time, plants selected from these crop and weed species and also winter barley (Hordeum vulgare), canarygrass (Phalaris minor), chickweed (Stellaria media) and windgrass (Apera spica-venti) were treated with postemergence applications of some of the test chemicals formulated in the same manner. Plants ranged in height from 2 to 18 cm (1- to 4-leaf stage) for postemergence treatments.\n(§3) Plant species in the flooded paddy test consisted of rice (Oryza sativa), umbrella sedge (Cyperus difformis), ducksalad (Heteranthera limosa) and barnyardgrass (Echinochloa crus-galli) grown to the 2-leaf stage for testing. At time of treatment, test pots were flooded to 3 cm above the soil surface, treated by application of test compounds directly to the paddy water, and then maintained at that water depth for the duration of the test. Treated plants and controls were maintained in a greenhouse for 13 to 15 days, after which time all species were compared to controls and visually evaluated. Plant response ratings, summarized in Table B, are based on a scale of 0 to 100 where 0 is no effect and 100 is complete control. A dash (-) response means no test result."}, "[2]": {"tested_on": "common (oilseed) sunflower (Helianthus annuus)", "conditions": "Preemergence", "description": "as §1, §2, §3"}, "[3]": {"tested_on": "downy bromegrass (Bromus tectorum)", "description": "as §1, §2, §3"}, "[4]": {"tested_on": "eastern black (E.B.) nightshade (Solanum ptycanthum)", "conditions": "Preemergence", "description": "as §1, §2, §3"}, "[5]": {"tested_on": "giant foxtail (Setaria faberii)", "description": "as §1, §2, §3"}, "[6]": {"tested_on": "goosegrass (Eleusine indica)", "description": "as §1, §2, §3"}, "[7]": {"tested_on": "morningglory (Ipomoea coccinea)", "description": "as §1, §2, §3"}, "soybean (Glycine max)": {"tested_on": "soybean (Glycine max)", "description": "as §1, §2, §3"}, "[8]": {"tested_on": "surinam grass (Brachiaria decumbens)", "description": "as §1, §2, §3"}, "[9]": {"tested_on": "wheat (Triticum aestivum)", "description": "as §1, §2, §3"}, "[10]": {"conditions": "8 g ai/ha, scale 0 to 100 (0 no effect, 100 complete control)"}, "[11]": {"conditions": "31 g ai/ha, scale 0 to 100 (0 no effect, 100 complete control)"}, "[12]": {"conditions": "62 g ai/ha, 0 to 100 scale, 0 no effect, 100 complete control"}, "[13]": {"conditions": "8 g ai/ha, postemergence, 0-100 scale"}, "[14]": {"conditions": "16 g ai/ha, postemergence, 0-100 scale"}, "[15]": {"conditions": "Postemergence, 31 g ai/ha, scale 0 to 100"}, "[16]": {"conditions": "Postemergence, 62 g ai/ha, scale 0 to 100, 0 no effect, 100 complete control"}, "[17]": {"conditions": "Preemergence, 8 g ai/ha, scale 0 to 100 (0 no effect, 100 complete control)"}, "[18]": {"conditions": "Preemergence, 31 g ai/ha, scale 0 to 100 (0 no effect, 100 complete control)"}, "[19]": {"conditions": "Preemergence, 62 g ai/ha, 0 to 100 scale, 0 no effect, 100 complete control"}, "[20]": {"conditions": "Preemergence, 16 g ai/ha, scale 0 to 100"}},
  "data": [
    {"smiles": "COc1nn(C)c(=O)c(-n2nc(-c3ccc(Br)cc3)cc2C)c1O", "note": "[Compound 82]", "values": [
      {"measurement": "Russian Thistle plant response rating", "setting": "[1]; [10]", "value": 0},
      {"measurement": "Plant response rating, Russian Thistle", "setting": "[1]; [11]", "value": 0},
      {"measurement": "Plant response rating, Russian Thistle", "setting": "[1]; [12]", "value": 0},
      {"measurement": "Russian Thistle plant response rating", "setting": "[1]; 16 g ai/ha, scale 0 to 100", "value": 0},
      {"measurement": "Sunflower plant response rating", "setting": "[2]; [10]", "value": 0},
      {"measurement": "Plant response rating, Sunflower", "setting": "[2]; [11]", "value": 70},
      {"measurement": "Plant response rating, Sunflower", "setting": "[2]; [12]", "value": 85},
      {"measurement": "Sunflower plant response rating", "setting": "[2]; 16 g ai/ha, scale 0 to 100", "value": 60},
      {"measurement": "Bromegrass, Downy plant response rating", "setting": "[3]; [13]", "value": 85},
      {"measurement": "Bromegrass, Downy plant response rating", "setting": "[3]; [14]", "value": 95},
      {"measurement": "Plant response rating, Bromegrass, Downy", "setting": "[3]; [15]", "value": 100},
      {"measurement": "Plant response rating, Bromegrass, Downy", "setting": "[3]; [16]", "value": 100},
      {"measurement": "Bromegrass, Downy plant response rating", "setting": "[3]; [17]", "value": 30},
      {"measurement": "Plant response rating, Bromegrass, Downy", "setting": "[3]; [18]", "value": 98},
      {"measurement": "Plant response rating, Bromegrass, Downy", "setting": "[3]; [19]", "value": 100},
      {"measurement": "Bromegrass, Downy plant response rating", "setting": "[3]; [20]", "value": 50},
      {"measurement": "Nightshade, E. B. plant response rating", "setting": "[4]; [10]", "value": 0},
      {"measurement": "Plant response rating, Nightshade, E. B.", "setting": "[4]; [11]", "value": 0},
      {"measurement": "Plant response rating, Nightshade, E. B.", "setting": "[4]; [12]", "value": 0},
      {"measurement": "Nightshade, E. B. plant response rating", "setting": "[4]; 16 g ai/ha, scale 0 to 100", "value": 0},
      {"measurement": "Foxtail, Giant plant response rating", "setting": "[5]; [13]", "value": 95},
      {"measurement": "Foxtail, Giant plant response rating", "setting": "[5]; [14]", "value": 100},
      {"measurement": "Plant response rating, Foxtail, Giant", "setting": "[5]; [15]", "value": 100},
      {"measurement": "Plant response rating, Foxtail, Giant", "setting": "[5]; [16]", "value": 100},
      {"measurement": "Foxtail, Giant plant response rating", "setting": "[5]; [17]", "value": 98},
      {"measurement": "Plant response rating, Foxtail, Giant", "setting": "[5]; [18]", "value": 100},
      {"measurement": "Plant response rating, Foxtail, Giant", "setting": "[5]; [19]", "value": 100},
      {"measurement": "Foxtail, Giant plant response rating", "setting": "[5]; [20]", "value": 100},
      {"measurement": "Goosegrass plant response rating", "setting": "[6]; [13]", "value": 60},
      {"measurement": "Goosegrass plant response rating", "setting": "[6]; [14]", "value": 65},
      {"measurement": "Plant response rating, Goosegrass", "setting": "[6]; [15]", "value": 85},
      {"measurement": "Plant response rating, Goosegrass", "setting": "[6]; [16]", "value": 90},
      {"measurement": "Goosegrass plant response rating", "setting": "[6]; [17]", "value": 95},
      {"measurement": "Plant response rating, Goosegrass", "setting": "[6]; [18]", "value": 98},
      {"measurement": "Plant response rating, Goosegrass", "setting": "[6]; [19]", "value": 100},
      {"measurement": "Goosegrass plant response rating", "setting": "[6]; [20]", "value": 98},
      {"measurement": "Morningglory plant response rating", "setting": "[7]; [13]", "value": 0},
      {"measurement": "Morningglory plant response rating", "setting": "[7]; [14]", "value": 0},
      {"measurement": "Plant response rating, Morningglory", "setting": "[7]; [15]", "value": 0},
      {"measurement": "Plant response rating, Morningglory", "setting": "[7]; [16]", "value": 55},
      {"measurement": "Morningglory plant response rating", "setting": "[7]; [17]", "value": 0},
      {"measurement": "Plant response rating, Morningglory", "setting": "[7]; [18]", "value": 0},
      {"measurement": "Plant response rating, Morningglory", "setting": "[7]; [19]", "value": 25},
      {"measurement": "Morningglory plant response rating", "setting": "[7]; [20]", "value": 0},
      {"measurement": "Soybean plant response rating", "setting": "soybean (Glycine max); [13]", "value": 0},
      {"measurement": "Soybean plant response rating", "setting": "soybean (Glycine max); [14]", "value": 45},
      {"measurement": "Plant response rating, Soybean", "setting": "soybean (Glycine max); [15]", "value": 55},
      {"measurement": "Plant response rating, Soybean", "setting": "soybean (Glycine max); [16]", "value": 70},
      {"measurement": "Soybean plant response rating", "setting": "soybean (Glycine max); [17]", "value": 0},
      {"measurement": "Plant response rating, Soybean", "setting": "soybean (Glycine max); [18]", "value": 20},
      {"measurement": "Plant response rating, Soybean", "setting": "soybean (Glycine max); [19]", "value": 100},
      {"measurement": "Soybean plant response rating", "setting": "soybean (Glycine max); [20]", "value": 0},
      {"measurement": "Surinam Grass plant response rating", "setting": "[8]; [13]", "value": 75},
      {"measurement": "Surinam Grass plant response rating", "setting": "[8]; [14]", "value": 95},
      {"measurement": "Plant response rating, Surinam Grass", "setting": "[8]; [15]", "value": 100},
      {"measurement": "Plant response rating, Surinam Grass", "setting": "[8]; [16]", "value": 100},
      {"measurement": "Surinam Grass plant response rating", "setting": "[8]; [17]", "value": 80},
      {"measurement": "Plant response rating, Surinam Grass", "setting": "[8]; [18]", "value": 95},
      {"measurement": "Plant response rating, Surinam Grass", "setting": "[8]; [19]", "value": 100},
      {"measurement": "Surinam Grass plant response rating", "setting": "[8]; [20]", "value": 85},
      {"measurement": "Wheat plant response rating", "setting": "[9]; [13]", "value": 85},
      {"measurement": "Wheat plant response rating", "setting": "[9]; [14]", "value": 98},
      {"measurement": "Plant response rating, Wheat", "setting": "[9]; [15]", "value": 100},
      {"measurement": "Plant response rating, Wheat", "setting": "[9]; [16]", "value": 100},
      {"measurement": "Wheat plant response rating", "setting": "[9]; [17]", "value": 0},
      {"measurement": "Plant response rating, Wheat", "setting": "[9]; [18]", "value": 98},
      {"measurement": "Plant response rating, Wheat", "setting": "[9]; [19]", "value": 100},
      {"measurement": "Wheat plant response rating", "setting": "[9]; [20]", "value": 65}
    ]}
  ]
}
